Laboratory results reported in patent publication US20130266636A1, “METHODS FOR BLOCKING CELL PROLIFERATION AND TREATING DISEASES AND CONDITIONS RESPONSIVE TO CELL GROWTH INHIBITION” (THE REGENTS OF THE UNIVERSITY OF CALIFORNIA, priority 2010, published 2013).
Entries after “also recorded” stand apart in the source; their conditions may differ.

What was measured:
[1] = tested on: p21-activated kinase (PAK); conditions: inferred from MEK S298; cited from earlier work
CRAF = CRAF (Homo sapiens, UniProt P04049); test: CRAF localization to the mitotic spindle, confocal microscopy of XPA-1 cells; type: cell-based; set-up: total CRAF and total MEK of lysates from XPA-1 cells treated with PD0325901, Sorafenib, L-779450, PLX4720, KG5 or KG1; endogenous in cells; host or cells: XPA-1
Text: FIG. 35. […] Data are representative of three independent experiments. FIG. 35 (b) Confocal microscopy images of human pancreatic XPA-1 and glioblastoma U251 cells during mitosis, stained for phospho-5338 CRAF (in green), α-tubulin (in red) and DNA (TOPRO-3™ in blue). Scale bar, 10 μm. White arrows indicate localization of phospho-S338 CRAF at the mitotic spindle. FIG. 35 (c) Immunoblot analysis of γ-tubulin immunoprecipitates from human colon carcinoma HCT-116 cells asynchronized and synchronized at pro-metaphase. Data are representative of three independent experiments. FIG. 35(d) Immunohistochemical staining of phospho-S338 CRAF in tumor biopsies from breast cancer patients. Scale bar, 10 μm. FIG. 35(e) Confocal microscopy images of XPA-1 cells treated with KG5, sorafenib, ZM336372, L779450 or paclitaxel and stained for CRAF (in green), γ-tubulin (in red) and DNA (TOPRO-3™ in blue). Scale bar, 10 μm. White arrows indicate localization of CRAF at the spindle pole. White circle indicates the absence of CRAF at the spindle pole.
Cells attached to cover-slips were fixed with cold methanol and permeabilized in PBS containing 0.1% triton for two minutes and blocked for 60 minutes, at room temperature with 2% BSA in PBS. Cells were stained with antibodies to CRAF (Abcam), phospho-serine 338 CRAF (SantaCruz), phospho-serine 338 CRAF (Thermo Scientific), a tubulin (Calbiochem), γ tubulin (Abcam), laminB (SantaCruz), Plk1 (Abcam), phospho-T210 Plk1 (Abcam), or phospho-T288 Aurora A (cell signaling). All primary antibodies were used at 1:100 dilution, for two hours at room temperature. After washing several times with PBS, cells were stained for two hours at room temperature, with secondary antibody specific for mouse, rabbit or goat (Invitrogen), as appropriate, diluted 1:300 and co-incubated with the DNA dye TOPRO-3™ (1:500) (Invitrogen). Samples were mounted in VECTASHIELD™ hard-set mounting media (Vector Laboratories) and imaged on a Nikon ECLIPSE C1™ confocal microscope with a 1.4 NA 60× oil-immersion lens, using minimum pinhole (30 μm). Images were captured using EZ-C1-3.50 imaging software.

[2] = tested on: human colon (HCT-116), pancreatic (Mia-Paca2, FG, XPA-1, BXPC3), breast (MDA-MB-231) and brain (U251) cancer cell lines; test: Cell cycle analysis of proliferating tumor cell lines treated with KG5; type: cell-based; conditions: all proliferating tumor cell lines tested
Description: FIG. 40. Allosteric inhibition of RAF arrests proliferating cells at pro-metaphase. FIG. 40(a) Cell cycle analysis and G2/M quantification of human colon (HCT-116), pancreatic (Mia-Paca2, FG, XPA-1, BXPC3), breast (MDA-MB-231) and brain (U251) cancer cell lines untreated or treated for 20 hours with 5 μM of KG5. Error bars represent s.d. (n=4); * two tailed p value=0.0023 using Mann Whitney U test. FIG. 40(b) HCT-116 cells were cultured under low (30%) or high (90%) confluency and treated with 1 μM KG5 for 20 hours. […] Error bars represent s.d. (n=3); * two tailed p value=0.0021 using Mann Whitney U test. FIG. 40(c) HCT-116 and XPA-1 cells were treated for 20 hours with 1 μM of KG5, stained for α-tubulin/DNA, and cells arrested in pro-metaphase were quantified by confocal microscopy. Error bars represent s.d. (n=3); * two tailed p value=0.0008 using Mann Whitney U test. Lysates from the same cells were also analyzed by immunoblotting for the expression of the mitotic marker phospho-Histone H3 (inset). Data are representative of three independent experiments.
Cell cycle analysis was performed by flow cytometry following propidium iodide staining. Briefly, cells were harvested, fixed with ice cold methanol, treated for 45 min with 10 μg/ml of RNase and resuspended in PBS containing 10 μg/ml of PI, and analyzed by flow cytometry. […]

[3] = tested on: human lung (A549) carcinoma cell line; test: Cell viability assay in A549 cells; type: cell-based

Chain of CRAF (P04049 whole entry): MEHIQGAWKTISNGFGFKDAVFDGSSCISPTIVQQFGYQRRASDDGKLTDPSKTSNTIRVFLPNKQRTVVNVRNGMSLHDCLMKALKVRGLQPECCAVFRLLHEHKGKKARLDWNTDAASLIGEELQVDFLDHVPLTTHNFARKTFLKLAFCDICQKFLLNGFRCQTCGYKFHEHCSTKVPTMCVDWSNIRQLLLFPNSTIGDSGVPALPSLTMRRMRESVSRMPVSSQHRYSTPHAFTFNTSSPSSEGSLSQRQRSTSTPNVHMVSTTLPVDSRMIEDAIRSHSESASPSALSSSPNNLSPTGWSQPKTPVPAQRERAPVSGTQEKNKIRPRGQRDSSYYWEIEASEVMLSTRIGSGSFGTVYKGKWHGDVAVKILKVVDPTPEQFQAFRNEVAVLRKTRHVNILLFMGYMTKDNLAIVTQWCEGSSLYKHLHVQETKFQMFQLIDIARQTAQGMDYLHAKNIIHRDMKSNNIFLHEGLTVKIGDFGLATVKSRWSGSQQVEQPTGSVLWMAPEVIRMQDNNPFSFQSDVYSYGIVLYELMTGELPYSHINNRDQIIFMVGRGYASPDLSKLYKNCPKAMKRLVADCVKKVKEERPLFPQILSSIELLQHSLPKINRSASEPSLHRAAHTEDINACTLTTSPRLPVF

CSc1nc(N)cc(Oc2ccc(-c3nnc(Nc4cccc(C(F)(F)F)c4)[nH]3)cc2)n1 [KG5]
PAK activity [1]: does not directly inhibit PAK activity
CRAF localization to the mitotic spindle (CRAF): prevents CRAF recruitment to the mitotic spindle; also recorded: prevented this localization
prevents phospho-S338 CRAF recruitment to the mitotic spindle (CRAF): prevents phospho-S338 CRAF recruitment to the mitotic spindle
mitotic arrest and cell death [2]: mitotic arrest at pro-metaphase followed by cell death
phospho-S338 CRAF [2]: inhibition of phospho-S338 CRAF
cell viability ([3]; A549): decrease cell viability
EC50 ([3]; A549 lung cancer cells): approach picomolar (pM) EC50s
